Assay results taken from PMC12603070, “A high-throughput screening approach to discover potential colorectal cancer chemotherapeutics: repurposing drugs to identify novel disruptors of 14-3-3 proteins” (Cell Death & Disease, 2025).
Counter-ions that a name gives are not always drawn. Like-named read-outs stand apart in the source and are kept apart here.

Key:
NIH-3T3 cells = assay: Hoechst/propidium iodide cell death assay in NIH-3T3; type: cell-based; details: for cytotoxicity at 20 µM: Mus musculus, NIH3T3, 24 h, read-out: Percentage of cell death % 24h NIH3t3; for cytotoxicity at 20 µM / Percentage of cell death % 24h NIH3t3: 24 h, 20 µM
Source text: (§1) A high-content imaging system (PerkinElmer; Operetta CLS), was used to quantify cell death and apoptosis by calculating the number of propidium iodide-positive cells relative to Hoechst-positive cells, and the number of Annexin V-positive cells relative to Hoechst-positive cells, respectively.

HT-29 cells = assay: Hoechst/propidium iodide cell death assay in HT-29; type: cell-based, human; details: for cytotoxicity at 20 µM: Homo sapiens
Source text: as §1

[1] = target: T1, 14-3-3ζ:BAD-112-136F interactions (Homo sapiens, UniProt P63104); assay: BRET sensor screen for disruption of 14-3-3ζ-Rluc8:BAD-112-136F-mCitrine in living NIH-3T3 cells; type: cell-based, murine; set-up: inhibition: dose or concentration left out as unconfirmed; BRET reduction on NIH-3T3: unit not given here; details: for inhibition / inhibition at 20 µM: NIH3T3, 3 h, read-out: BRET reduction on NIH-3T3
T1 construct: expressed in transfected cells; host or cells: NIH-3T3 fibroblasts, bi-directional pBI-CMV1 plasmid
T1 sequence (P63104 1-245): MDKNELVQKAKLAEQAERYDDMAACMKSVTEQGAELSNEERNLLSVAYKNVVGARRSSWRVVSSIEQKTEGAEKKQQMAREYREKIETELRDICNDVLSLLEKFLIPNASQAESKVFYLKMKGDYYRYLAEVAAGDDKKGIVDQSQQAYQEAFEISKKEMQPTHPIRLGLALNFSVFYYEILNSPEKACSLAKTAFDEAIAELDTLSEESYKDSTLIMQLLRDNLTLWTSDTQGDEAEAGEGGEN
Protocol: The Z’-score, which evaluates the robustness of an HTS assay readout, was calculated according to standard protocols. For the HTS, 384-well plates were coated with 100 μg/mL poly-L-ornithine (Sigma, Missouri, United States; #P3655) overnight at 37 °C, followed by rinsing with sterilized water. NIH-3T3 cells were transfected with the BRET sensor two days prior to experimentation, followed by replating onto the pre-coated 384-well plates at a density of 20,000 cells/well. After 24 h of incubation at 37 °C, growth media was replaced by Krebs buffer (pH 7.4).

[2] = HT-29, 24 h, 20 µM, 24 h, read-out: Percentage of cell death % 24h HT-29
[3] = HT-29, 48 h, HT-29, 48h, 20 μM, read-out: Percentage of cell death % 48h, HT-29
[4] = NIH-3T3 cells, hits from the primary screen
[5] = NIH-3T3 expressing BRET sensor, 20 µM, 3 h

Row | inhibition [1, 4] [%] | inhibition at 20 µM [1, 5] [%] | BRET reduction on NIH-3T3 [1, 4] | BRET reduction on NIH-3T3 [1, 5] | Compound | cytotoxicity at 20 µM (NIH-3T3 cells) [%] | Percentage of cell death % 48h, NIH3T3 (NIH-3T3 cells) [%] | cytotoxicity at 20 µM (HT-29 cells; [2]) [%] | cytotoxicity at 20 µM (HT-29 cells; [3]) [%] | Percentage of cell death % 24h NIH3t3 (NIH-3T3 cells) [%] | Percentage of cell death % 24h HT-29 (HT-29 cells; 20 µM, 24 h) [%] | Percentage of cell death % 48h, HT-29 (HT-29 cells; HT-29, 48h, 20 μM) [%]
1 | 48.3 | 48.3 |  |  | Clc1ccc(COC(Cn2ccnc2)c2ccc(Cl)cc2Cl)cc1 (stereo not drawn) [Econazole nitrate] | 14.2 | 7.996 | 8.57 | 13 |  |  | 
2 | 31.7 | 31.7 |  |  | Clc1ccc(C(Cn2ccnc2)OCc2ccc(Sc3ccccc3)cc2)c(Cl)c1 (stereo not drawn) [Fenticonazole Nitrate] | 0.773 | 1.538 | 0.786 | 1.58 |  |  | 
3 |  |  | 52.8386 | 52.8386 | Clc1ccc(COC(Cn2ccnc2)c2ccc(Cl)cc2Cl)c(Cl)c1 (stereo not drawn) [Miconazole Nitrate] |  | 6.033 |  |  | 12.1676 | 5.26 | 9.591
4 | 48.7 | 48.7 |  |  | Clc1ccc(COC(Cn2ccnc2)c2ccc(Cl)cc2Cl)c(Cl)c1 (stereo not drawn) [Miconazole] |  | 3.437 | 2.78 | 5.75 | 6.07 |  | 
5 | 25.6 | 25.6 |  |  | Clc1ccc(C(c2ccccc2Cl)C(Cl)Cl)cc1 (stereo not drawn) [Mitotane (Lsodren), Mitotane] | 25.3 | 5.575 | 0.553 | 1.62 |  |  | 
6 | 30.9 | 30.9 |  |  | CC(C)(O)c1ccccc1CC[C@@H](SCC1(CC(=O)O)CC1)c1cccc(/C=C/c2ccc3ccc(Cl)cc3n2)c1 [Montelukast Sodium] | 14.8 | 2.7667 | 0.524 | 1.19 |  |  | 
7 | 46.8 | 46.8 |  |  | Clc1ccc(C(Cn2ccnc2)OCc2csc3c(Cl)cccc23)c(Cl)c1 (stereo not drawn) [Sertaconazole nitrate] | 4.15 | 10.0161 | 2.46 | 4.64 |  |  | 

Continued, compound first:

Row | Compound | inhibition [1, 4] [%] | inhibition at 20 µM [1, 5] [%] | BRET reduction on NIH-3T3 [1, 4] | BRET reduction on NIH-3T3 [1, 5] | cytotoxicity at 20 µM (NIH-3T3 cells) [%] | Percentage of cell death % 48h, NIH3T3 (NIH-3T3 cells) [%] | cytotoxicity at 20 µM (HT-29 cells; [2]) [%] | cytotoxicity at 20 µM (HT-29 cells; [3]) [%] | Percentage of cell death % 24h NIH3t3 (NIH-3T3 cells) [%] | Percentage of cell death % 24h HT-29 (HT-29 cells; 20 µM, 24 h) [%] | Percentage of cell death % 48h, HT-29 (HT-29 cells; HT-29, 48h, 20 μM) [%]
8 | C#C[C@]1(O)CC[C@H]2[C@@H]3CCC4=CCCC[C@@H]4[C@H]3C(=C)C[C@@]21CC [Desogestrel] | 40.6 | 40.6 |  |  | 16.1 | 8.012 | 1.59 | 2.12 |  |  | 
9 | CC/C(=C(/CC)c1ccc(O)cc1)c1ccc(O)cc1 [Diethylstilbestrol] | 28.3 | 28.3 |  |  | 11.2 | 3.653 | 0.869 | 2.76 |  |  | 
10 | CC1(C)[C@@H](O)CC[C@]2(C)[C@H]3C(=O)C=C4[C@@H]5C[C@@](C)(C(=O)O)CC[C@]5(C)CC[C@@]4(C)[C@]3(C)CC[C@@H]12 [Enoxolone] | 42.9 | 42.9 |  |  | 4.15 | 0.6522 | 0.697 | 1.61 |  |  | 
11 | CN1CCN(c2ccc(C(=O)Nc3n[nH]c4ccc(Cc5cc(F)cc(F)c5)cc34)c(NC3CCOCC3)c2)CC1 [Entrectinib] | 56.8 | 56.8 |  |  | 81.5 | 85.5203 | 58.1 | 80.4 |  |  | 
12 | CCOC(=O)C1=C(C)NC(C)=C(C(=O)OC)C1c1cccc(Cl)c1Cl (stereo not drawn) [Felodipine] | 27.6 | 27.6 |  |  | 6.69 | 43.2531 | 3.81 | 6.71 |  |  | 
13 | CCc1c(Cl)c(O)c(Cl)c(O)c1C(=O)O[C@H]1[C@H](O)[C@H](OC)[C@H](OC/C2=C\C=C\C[C@H](O)/C(C)=C/[C@H](CC)[C@@H](O[C@@H]3OC(C)(C)[C@@H](OC(=O)C(C)C)[C@H](O)[C@@H]3O)/C(C)=C/C(C)=C/C[C@@H]([C@@H](C)O)OC2=O)O[C@@H]1C [Fidaxomicin] | 32.5 | 32.5 |  |  | 1.82 | 1.5823 | 2.31 | 52.8 |  |  | 
14 | CC[C@H](c1ccc(O)cc1)[C@@H](CC)c1ccc(O)cc1 [Hexestrol] | 36.7 | 36.7 |  |  | 5.47 | 3.549 | 1.37 | 3.31 |  |  | 
15 | Cc1cc(Nc2ncc(Cl)c(Nc3ccccc3S(=O)(=O)C(C)C)n2)c(OC(C)C)cc1C1CCNCC1 [LDK378] | 46.5 | 46.5 |  |  | 80.9 | 75.6563 | 92.1 | 89.8 |  |  | 
16 | CC1(C)Cc2c(-c3ccccc3)c(-c3ccc(Cl)cc3)c(CC(=O)O)n2C1 [Licofelone] | 33 | 33 |  |  | 0.823 | 0.4583 | 2.67 | 3.98 |  |  | 
17 | NC(=O)N1CCC(CC(=O)N2CCC([C@H]3c4ncc(Br)cc4CCc4cc(Cl)cc(Br)c43)CC2)CC1 [Lonafarnib] | 40.6 | 40.6 |  |  | 36.3 | 40.7575 | 1.12 | 1.7 |  |  | 
18 | O=C1c2c(O)ccc(O)c2C(=O)c2c(NCCNCCO)ccc(NCCNCCO)c21 [Mitoxantrone HCl] | 25.5 | 25.5 |  |  | 0.018 | 0 | 0 | 0.0037 |  |  | 
19 | CC[C@H]1[C@@H](O)[C@@H]2[C@H](CC[C@]3(C)[C@@H]([C@H](C)CCC(=O)O)CC[C@@H]23)[C@@]2(C)CC[C@@H](O)C[C@@H]12 [Obeticholic Acid] | 36.4 | 36.4 |  |  | 1.16 | 0.273 | 0.566 | 1.41 |  |  | 
20 | CCOc1cc(CC(=O)N[C@@H](CC(C)C)c2ccccc2N2CCCCC2)ccc1C(=O)O [Repaglinide] | 28.4 | 28.4 |  |  | 0.236 | 0.185 | 0.354 | 1.01 |  |  | 
21 | CC(C)=CCC/C(C)=C/CC/C(C)=C/CSc1ccccc1C(=O)O [Salirasib] | 45.5 | 45.5 |  |  | 3.71 | 1.2519 | 0.693 | 1.28 |  |  | 
